Patent publication US12018059B2, “Human amylin analog polypeptides and methods of use” (Intarcia Therapeutics, Inc., priority 2018, dated 2024)
Starred links: 1 amine or outer side, 2 acyl side, 3 side chain; linkers in the order of their positions; H or OH if unused. Positions of bridges follow the written chain, without caps; N, C: chain ends. Non-standard residues stand in square brackets, D forms with d. Residues, ends and D or L forms follow the SMILES beside them. Groups on a side chain read outwards from the residue. *: point of attachment. C20 diacid = O=C(O)CCCCCCCCCCCCCCCCCCC(=O)*; C18 diacid = O=C(O)CCCCCCCCCCCCCCCCC(=O)*; C17 diacid = O=C(O)CCCCCCCCCCCCCCCC(=O)*; C16 diacid = O=C(O)CCCCCCCCCCCCCCC(=O)*; γGlu = O=C(O)[C@H](CCC(=O)[*:2])N[*:1]; C12 diacid = O=C(O)CCCCCCCCCCC(=O)*; Palmitoyl = CCCCCCCCCCCCCCCC(=O)*

Test: in vivo
Set-up: species or system Sprague-Dawley rats
Conditions: male, Sprague-Dawley, rat, iv, 0.033 mg/kg
Method in brief: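 Male Sprague-Dawley rats, non-fasted (n=3), given peptide in saline as 1-h IV or SC infusion at 0.033 mg/kg, or SC bolus at 0.3 mg/kg; jugular blood to 48 h into K2EDTA plus protease inhibitors. Plasma extracted by precipitation or WCX solid-phase extraction, quantified by UPLC-MS/MS against standards in matching rat plasma.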

Row | SMILES | Vd | clearance | half-life
1 | CC[C@H](C)[C@H](NC(=O)[C@@H]1CCCN1C(=O)CNC(=O)[C@H](Cc1ccccc1)NC(=O)[C@H](CC(N)=O)NC(=O)[C@H](CC(N)=O)NC(=O)[C@H](CO)NC(=O)[C@H](CO)NC(=O)[C@H](CCCCN)NC(=O)[C@H](Cc1c[nH]cn1)NC(=O)[C@H](CCCCNC(=O)CC[C@H](NC(=O)CCCCCCCCCCCCCCCCCCC(=O)O)C(=O)O)NC(=O)[C@H](CCC(=O)O)NC(=O)[C@H](CC(N)=O)NC(=O)[C@H](C)NC(=O)[C@H](CC(C)C)NC(=O)[C@H](CCCNC(=N)N)NC(=O)[C@H](CCC(N)=O)NC(=O)[C@@H](NC(=O)[C@H](C)NC(=O)[C@@H]1CSSC[C@H](NC(=O)[C@@H](N)CO)C(=O)N[C@@H](CC(N)=O)C(=O)N[C@@H]([C@@H](C)O)C(=O)N[C@@H](CO)C(=O)N[C@@H]([C@@H](C)O)C(=O)N1)[C@@H](C)O)C(=O)N[C@@H](CC(C)C)C(=O)N1CCC[C@H]1C(=O)N1CCC[C@H]1C(=O)N[C@H](C(=O)N[C@@H](CCCCN)C(=O)N[C@H](C(=O)NCC(=O)N[C@@H](CO)C(=O)N[C@@H](CCC(=O)O)C(=O)N[C@H](C(=O)N[C@@H](Cc1ccc(O)cc1)C(N)=O)[C@@H](C)O)C(C)C)[C@@H](C)O [Compound A73] (H-SCNTSTCATQRLANEK([γGlu-C20 diacid])HKSSNNFGPILPPTKVGSETY-NH2; disulfide 2-7; N-terminus assumed) | 0.0924 L/kg | 0.0449 mL/min/kg | 26.6 h
2 | CC[C@H](C)[C@H](NC(=O)[C@@H]1CCCN1C(=O)CNC(=O)[C@H](Cc1ccccc1)NC(=O)[C@H](CC(N)=O)NC(=O)[C@H](CC(N)=O)NC(=O)[C@H](CO)NC(=O)[C@H](CO)NC(=O)[C@H](CCCCN)NC(=O)[C@H](Cc1c[nH]cn1)NC(=O)[C@H](CCCCNC(=O)CCCCCCCCCCCCCCCCCCC(=O)O)NC(=O)[C@H](CCC(=O)O)NC(=O)[C@H](CC(N)=O)NC(=O)[C@H](C)NC(=O)[C@H](CC(C)C)NC(=O)[C@H](CCCNC(=N)N)NC(=O)[C@H](CCC(N)=O)NC(=O)[C@@H](NC(=O)[C@H](C)NC(=O)[C@@H]1CSSC[C@H](NC(=O)[C@@H](N)CO)C(=O)N[C@@H](CC(N)=O)C(=O)N[C@@H]([C@@H](C)O)C(=O)N[C@@H](CO)C(=O)N[C@@H]([C@@H](C)O)C(=O)N1)[C@@H](C)O)C(=O)N[C@@H](CC(C)C)C(=O)N1CCC[C@H]1C(=O)N1CCC[C@H]1C(=O)N[C@H](C(=O)N[C@@H](CCCCN)C(=O)N[C@H](C(=O)NCC(=O)N[C@@H](CO)C(=O)N[C@@H](CCC(=O)O)C(=O)N[C@H](C(=O)N[C@@H](Cc1ccc(O)cc1)C(N)=O)[C@@H](C)O)C(C)C)[C@@H](C)O [Compound A75] (H-SCNTSTCATQRLANEK(C20 diacid)HKSSNNFGPILPPTKVGSETY-NH2; disulfide 2-7; N-terminus assumed) | 0.121 L/kg | 0.0781 mL/min/kg | 24.1 h
3 | CC[C@H](C)[C@H](NC(=O)[C@@H]1CCCN1C(=O)CNC(=O)[C@H](Cc1ccccc1)NC(=O)[C@H](CC(N)=O)NC(=O)[C@H](CC(N)=O)NC(=O)[C@H](CO)NC(=O)[C@H](CO)NC(=O)[C@H](CCCCN)NC(=O)[C@H](Cc1c[nH]cn1)NC(=O)[C@H](CCCCNC(=O)CC[C@H](NC(=O)CCCCCCCCCCCCCCCCC(=O)O)C(=O)O)NC(=O)[C@H](CCC(=O)O)NC(=O)[C@H](CC(N)=O)NC(=O)[C@H](C)NC(=O)[C@H](CC(C)C)NC(=O)[C@H](CCCNC(=N)N)NC(=O)[C@H](CCC(N)=O)NC(=O)[C@@H](NC(=O)[C@H](C)NC(=O)[C@@H]1CSSC[C@H](NC(=O)[C@@H](N)CO)C(=O)N[C@@H](CC(N)=O)C(=O)N[C@@H]([C@@H](C)O)C(=O)N[C@@H](CO)C(=O)N[C@@H]([C@@H](C)O)C(=O)N1)[C@@H](C)O)C(=O)N[C@@H](CC(C)C)C(=O)N1CCC[C@H]1C(=O)N1CCC[C@H]1C(=O)N[C@H](C(=O)N[C@@H](CCCCN)C(=O)N[C@H](C(=O)NCC(=O)N[C@@H](CO)C(=O)N[C@@H](CCC(=O)O)C(=O)N[C@H](C(=O)N[C@@H](Cc1ccc(O)cc1)C(N)=O)[C@@H](C)O)C(C)C)[C@@H](C)O [Compound A76] (H-SCNTSTCATQRLANEK([γGlu-C18 diacid])HKSSNNFGPILPPTKVGSETY-NH2; disulfide 2-7; N-terminus assumed) | 0.176 L/kg | 0.105 mL/min/kg | 21.3 h
4 | CC[C@H](C)[C@H](NC(=O)[C@@H]1CCCN1C(=O)CNC(=O)[C@H](Cc1ccccc1)NC(=O)[C@H](CC(N)=O)NC(=O)[C@H](CC(N)=O)NC(=O)[C@H](CO)NC(=O)[C@H](CO)NC(=O)[C@H](CCCCN)NC(=O)[C@H](Cc1c[nH]cn1)NC(=O)[C@H](CCCCNC(=O)CCCCCCCCCCCCCCCC(=O)O)NC(=O)[C@H](CCC(=O)O)NC(=O)[C@H](CC(N)=O)NC(=O)[C@H](C)NC(=O)[C@H](CC(C)C)NC(=O)[C@H](CCCNC(=N)N)NC(=O)[C@H](CCC(N)=O)NC(=O)[C@@H](NC(=O)[C@H](C)NC(=O)[C@@H]1CSSC[C@H](NC(=O)[C@@H](N)CO)C(=O)N[C@@H](CC(N)=O)C(=O)N[C@@H]([C@@H](C)O)C(=O)N[C@@H](CO)C(=O)N[C@@H]([C@@H](C)O)C(=O)N1)[C@@H](C)O)C(=O)N[C@@H](CC(C)C)C(=O)N1CCC[C@H]1C(=O)N1CCC[C@H]1C(=O)N[C@H](C(=O)N[C@@H](CCCCN)C(=O)N[C@H](C(=O)NCC(=O)N[C@@H](CO)C(=O)N[C@@H](CCC(=O)O)C(=O)N[C@H](C(=O)N[C@@H](Cc1ccc(O)cc1)C(N)=O)[C@@H](C)O)C(C)C)[C@@H](C)O [Compound A79] (H-SCNTSTCATQRLANEK(C17 diacid)HKSSNNFGPILPPTKVGSETY-NH2; disulfide 2-7; N-terminus assumed) | 0.115 L/kg | 0.162 mL/min/kg | 7.8 h

Same assay, conditions: rat, iv, 0.033 mg/kg

Row | SMILES | Vd | clearance | half-life
5 | CCCCCCCCCCCCCCCC(=O)N[C@@H](CCC(=O)N[C@@H](CCC(=O)NCCCC[C@@H](NC(=O)[C@H](Cc1ccccc1)NC(=O)[C@H](CC(N)=O)NC(=O)[C@H](C)NC(=O)[C@H](CC(C)C)NC(=O)[C@H](CCCNC(=N)N)NC(=O)[C@H](CCC(N)=O)NC(=O)[C@@H](NC(=O)[C@H](C)NC(=O)[C@@H]1CSSC[C@H](NC(=O)[C@@H](N)CO)C(=O)N[C@@H](CC(N)=O)C(=O)N[C@@H]([C@@H](C)O)C(=O)N[C@@H](CO)C(=O)N[C@@H]([C@@H](C)O)C(=O)N1)[C@@H](C)O)C(=O)N[C@@H](Cc1c[nH]cn1)C(=O)N[C@@H](CCCCN)C(=O)N[C@@H](CO)C(=O)N[C@@H](CO)C(=O)N[C@@H](CC(N)=O)C(=O)N[C@@H](CC(N)=O)C(=O)N[C@@H](Cc1ccccc1)C(=O)NCC(=O)N1CCC[C@H]1C(=O)N[C@H](C(=O)N[C@@H](CC(C)C)C(=O)N1CCC[C@H]1C(=O)N1CCC[C@H]1C(=O)N[C@H](C(=O)N[C@@H](CCCCN)C(=O)N[C@H](C(=O)NCC(=O)N[C@@H](CO)C(=O)N[C@@H](CCC(=O)O)C(=O)N[C@H](C(=O)N[C@@H](Cc1ccc(O)cc1)C(N)=O)[C@@H](C)O)C(C)C)[C@@H](C)O)[C@@H](C)CC)C(=O)O)C(=O)O [Compound A70] (H-SCNTSTCATQRLANF[dK]([γGlu-γGlu-Palmitoyl])HKSSNNFGPILPPTKVGSETY-NH2; disulfide 2-7) | 0.187 L/kg | 3.08 mL/min/kg | 0.752 h
6 | CC[C@H](C)[C@H](NC(=O)[C@@H]1CCCN1C(=O)CNC(=O)[C@H](Cc1ccccc1)NC(=O)[C@H](CC(N)=O)NC(=O)[C@H](CC(N)=O)NC(=O)[C@H](CO)NC(=O)[C@H](CO)NC(=O)[C@H](CCCCN)NC(=O)[C@H](Cc1c[nH]cn1)NC(=O)[C@H](CC(C)C)NC(=O)[C@H](CCCCNC(=O)CCCCCCCCCCCCCCC(=O)O)NC(=O)[C@H](CC(N)=O)NC(=O)[C@H](C)NC(=O)[C@H](CC(C)C)NC(=O)[C@H](CCCNC(=N)N)NC(=O)[C@H](CCC(N)=O)NC(=O)[C@@H](NC(=O)[C@H](C)NC(=O)[C@@H]1CSSC[C@H](NC(=O)[C@@H](N)CO)C(=O)N[C@@H](CC(N)=O)C(=O)N[C@@H]([C@@H](C)O)C(=O)N[C@@H](CO)C(=O)N[C@@H]([C@@H](C)O)C(=O)N1)[C@@H](C)O)C(=O)N[C@@H](CC(C)C)C(=O)N1CCC[C@H]1C(=O)N1CCC[C@H]1C(=O)N[C@H](C(=O)N[C@@H](CCCCN)C(=O)N[C@H](C(=O)NCC(=O)N[C@@H](CO)C(=O)N[C@@H](CCC(=O)O)C(=O)N[C@H](C(=O)N[C@@H](Cc1ccc(O)cc1)C(N)=O)[C@@H](C)O)C(C)C)[C@@H](C)O [Compound A72] (H-SCNTSTCATQRLANK(C16 diacid)LHKSSNNFGPILPPTKVGSETY-NH2; disulfide 2-7) | 0.172 L/kg | 1.54 mL/min/kg | 3.44 h
7 | CC[C@H](C)[C@H](NC(=O)[C@@H]1CCCN1C(=O)CNC(=O)[C@H](Cc1ccccc1)NC(=O)[C@H](CC(N)=O)NC(=O)[C@H](CC(N)=O)NC(=O)[C@H](CO)NC(=O)[C@H](CO)NC(=O)[C@H](CCCCN)NC(=O)[C@H](Cc1c[nH]cn1)NC(=O)[C@H](CCCCNC(=O)CCCCCCCCCCC(=O)O)NC(=O)[C@H](CCC(=O)O)NC(=O)[C@H](CC(N)=O)NC(=O)[C@H](C)NC(=O)[C@H](CC(C)C)NC(=O)[C@H](CCCNC(=N)N)NC(=O)[C@H](CCC(N)=O)NC(=O)[C@@H](NC(=O)[C@H](C)NC(=O)[C@@H]1CSSC[C@H](NC(=O)[C@@H](N)CO)C(=O)N[C@@H](CC(N)=O)C(=O)N[C@@H]([C@@H](C)O)C(=O)N[C@@H](CO)C(=O)N[C@@H]([C@@H](C)O)C(=O)N1)[C@@H](C)O)C(=O)N[C@@H](CC(C)C)C(=O)N1CCC[C@H]1C(=O)N1CCC[C@H]1C(=O)N[C@H](C(=O)N[C@@H](CCCCN)C(=O)N[C@H](C(=O)NCC(=O)N[C@@H](CO)C(=O)N[C@@H](CCC(=O)O)C(=O)N[C@H](C(=O)N[C@@H](Cc1ccc(O)cc1)C(N)=O)[C@@H](C)O)C(C)C)[C@@H](C)O [Compound A74] (H-SCNTSTCATQRLANEK(C12 diacid)HKSSNNFGPILPPTKVGSETY-NH2; disulfide 2-7) | 0.331 L/kg | 12.2 mL/min/kg | 0.331 h
